Measurements from ChEMBL document CHEMBL4138123, “Design, synthesis and biological evaluation of novel pyrazolochalcones as potential modulators of PI3K/Akt/mTOR pathway and inducers of apoptosis in breast cancer cells” (Eur J Med Chem, 2017).

Key:
Type in all cases: functional
K562 = experiment: Cytotoxicity against human K562 cells assessed as growth inhibition after 48 hrs by sulforhodamine B assay; conditions: K562, 48 h
A549 [1] = experiment: Cytotoxicity against human A549/ATCC cells assessed as growth inhibition after 48 hrs by sulforhodamine B assay; conditions: A549, 48 h
Malme-3M [2] = experiment: Cytotoxicity against human MALME-3M cells assessed as growth inhibition after 48 hrs by sulforhodamine B assay
M14 = experiment: Cytotoxicity against human M14 cells assessed as growth inhibition after 48 hrs by sulforhodamine B assay; conditions: M14, 48 h
OVCAR-8 [3] = experiment: Cytotoxicity against human OVCAR8 cells assessed as growth inhibition after 48 hrs by sulforhodamine B assay; conditions: OVCAR-8, 48 h
CCRF-CEM [4] = experiment: Cytotoxicity against human CCRF-CEM cells assessed as cell growth at 0.01 uM after 48 hrs by sulforhodamine B assay relative to control; conditions: read-out: Activity
MDA-MB-435 = experiment: Cytotoxicity against human MDA-MB-435 cells assessed as cell growth at 0.01 uM after 48 hrs by sulforhodamine B assay relative to control; conditions: MDA-MB-435, 48 h, read-out: Activity
SF-268 = experiment: Cytotoxicity against human SF268 cells assessed as cell growth at 0.01 uM after 48 hrs by sulforhodamine B assay relative to control; conditions: SF-268, 48 h, read-out: Activity
HT-29 [5] = experiment: Cytotoxicity against human HT-29 cells assessed as cell growth at 0.01 uM after 48 hrs by sulforhodamine B assay relative to control; conditions: HT-29, 48 h, read-out: Activity
A549 [6] = experiment: Cytotoxicity against human A549/ATCC cells assessed as cell growth at 0.01 uM after 48 hrs by sulforhodamine B assay relative to control; conditions: A549, 48 h, read-out: Activity
RPMI-8226 [7] = experiment: Cytotoxicity against human RPMI8226 cells assessed as cell growth at 0.01 uM after 48 hrs by sulforhodamine B assay relative to control; conditions: RPMI-8226, 48 h, read-out: Activity
PC-3 = experiment: Cytotoxicity against human PC3 cells assessed as cell growth at 0.01 uM after 48 hrs by sulforhodamine B assay relative to control; conditions: PC-3, 48 h, read-out: Activity
HCT-15 = experiment: Cytotoxicity against human HCT15 cells assessed as cell growth at 0.1 uM after 48 hrs by sulforhodamine B assay relative to control; conditions: HCT-15, 48 h, read-out: Activity
HT-29 [8] = experiment: Cytotoxicity against human HT-29 cells assessed as cell growth at 0.1 uM after 48 hrs by sulforhodamine B assay relative to control; conditions: HT-29, 48 h, read-out: Activity
SK-MEL-28 = experiment: Cytotoxicity against human SK-MEL-28 cells assessed as cell growth at 0.1 uM after 48 hrs by sulforhodamine B assay relative to control; conditions: SK-MEL-28, 48 h, read-out: Activity
MDA-MB-468 = experiment: Cytotoxicity against human MDA-MB-468 cells assessed as cell growth at 0.1 uM after 48 hrs by sulforhodamine B assay relative to control; conditions: MDA-MB-468, 48 h, read-out: Activity
CCRF-CEM [9] = experiment: Cytotoxicity against human CCRF-CEM cells assessed as cell growth at 1 uM after 48 hrs by sulforhodamine B assay relative to control; conditions: read-out: Activity
NCI-H460 = experiment: Cytotoxicity against human NCI-H460 cells assessed as cell growth at 1 uM after 48 hrs by sulforhodamine B assay relative to control; conditions: NCI-H460, 48 h, read-out: Activity
SW-620 [10] = experiment: Cytotoxicity against human SW620 cells assessed as cell growth at 1 uM after 48 hrs by sulforhodamine B assay relative to control; conditions: SW-620, 48 h, read-out: Activity
UACC-257 = experiment: Cytotoxicity against human UACC257 cells assessed as cell growth at 1 uM after 48 hrs by sulforhodamine B assay relative to control; conditions: UACC-257, 48 h, read-out: Activity
OVCAR-8 [11] = experiment: Cytotoxicity against human OVCAR8 cells assessed as cell growth at 1 uM after 48 hrs by sulforhodamine B assay relative to control; conditions: OVCAR-8, 48 h, read-out: Activity
NCI-H226 = experiment: Cytotoxicity against human NCI-H226 cells assessed as cell growth at 10 uM after 48 hrs by sulforhodamine B assay relative to control; conditions: NCI-H226, 48 h, read-out: Activity
SW-620 [12] = experiment: Cytotoxicity against human SW620 cells assessed as cell growth at 10 uM after 48 hrs by sulforhodamine B assay relative to control; conditions: SW-620, 48 h, read-out: Activity
U-251 = experiment: Cytotoxicity against human U251 cells assessed as cell growth at 10 uM after 48 hrs by sulforhodamine B assay relative to control; conditions: U-251, 48 h, read-out: Activity
Malme-3M [13] = experiment: Cytotoxicity against human MALME-3M cells assessed as cell growth at 10 uM after 48 hrs by sulforhodamine B assay relative to control; conditions: read-out: Activity
OVCAR-8 [14] = experiment: Cytotoxicity against human OVCAR8 cells assessed as cell growth at 10 uM after 48 hrs by sulforhodamine B assay relative to control; conditions: OVCAR-8, 48 h, read-out: Activity
DU-145 = experiment: Cytotoxicity against human DU145 cells assessed as cell growth at 10 uM after 48 hrs by sulforhodamine B assay relative to control; conditions: DU-145, 48 h, read-out: Activity
RPMI-8226 [15] = experiment: Cytotoxicity against human RPMI8226 cells assessed as cell growth at 100 uM after 48 hrs by sulforhodamine B assay relative to control; conditions: RPMI-8226, 48 h, read-out: Activity
COLO 205 = experiment: Cytotoxicity against human COLO205 cells assessed as cell growth at 100 uM after 48 hrs by sulforhodamine B assay relative to control; conditions: COLO 205, 48 h, read-out: Activity
HCT-116 = experiment: Cytotoxicity against human HCT116 cells assessed as cell growth at 100 uM after 48 hrs by sulforhodamine B assay relative to control; conditions: HCT-116, 48 h, read-out: Activity
SF-539 = experiment: Cytotoxicity against human SF539 cells assessed as cell growth at 100 uM after 48 hrs by sulforhodamine B assay relative to control; conditions: SF-539, 48 h, read-out: Activity
SNB-19 = experiment: Cytotoxicity against human SNB19 cells assessed as cell growth at 100 uM after 48 hrs by sulforhodamine B assay relative to control; conditions: SNB-19, 48 h, read-out: Activity
Malme-3M [16] = experiment: Cytotoxicity against human MALME-3M cells assessed as cell growth at 100 uM after 48 hrs by sulforhodamine B assay relative to control; conditions: read-out: Activity
SN12C = experiment: Cytotoxicity against human SN12C cells assessed as cell growth at 100 uM after 48 hrs by sulforhodamine B assay relative to control; conditions: read-out: Activity

**Q.** With `COc1cc(-c2cc(/C=C/C(=O)c3ccc4c(c3)OCO4)[nH]n2)cc(OC)c1OC` as the molecule, how does the LC50 (concentration killing 50% of cells) (K562) read?
**A.** Its LC50 (concentration killing 50% of cells) is greater than 100 µM.

**Q.** What about the TGI (K562) of the same molecule?
**A.** The TGI was 9.81 µM.

**Q.** What about the LC50 (concentration giving 50% net cell kill) (A549 [1]) of the same molecule?
**A.** The LC50 (concentration giving 50% net cell kill) was greater than 100 µM.

**Q.** What about the TGI (A549 [1]) of the same molecule?
**A.** The TGI was greater than 100 µM.

**Q.** What about the LC50 (Malme-3M [2]) of the same molecule?
**A.** The LC50 was 84.5 µM.

**Q.** And the TGI (Malme-3M [2])?
**A.** Its TGI is 20.8 µM.

**Q.** What about the LC50 (concentration killing 50% of cells) (M14) of the same molecule?
**A.** The LC50 (concentration killing 50% of cells) was greater than 100 µM.

**Q.** And the TGI (M14)?
**A.** The TGI was greater than 100 µM.

**Q.** And the LC50 (OVCAR-8 [3])?
**A.** Its LC50 is greater than 100 µM.

**Q.** And the TGI (OVCAR-8 [3])?
**A.** Its TGI is 11.1 µM.

**Q.** What about the growth at 0.01 µM (CCRF-CEM [4]) of the same molecule?
**A.** Its growth at 0.01 µM is 94%.

**Q.** What about the growth at 0.01 µM (MDA-MB-435) of the same molecule?
**A.** Its growth at 0.01 µM is 96%.

**Q.** What about the growth at 0.01 µM (SF-268) of the same molecule?
**A.** The growth at 0.01 µM was 91%.

**Q.** What about the growth at 0.01 µM (HT-29 [5]) of the same molecule?
**A.** The growth at 0.01 µM was 99%.

**Q.** What about the growth at 0.01 µM (A549 [6]) of the same molecule?
**A.** The growth at 0.01 µM was 101%.

**Q.** And the growth at 0.01 µM (RPMI-8226 [7])?
**A.** Its growth at 0.01 µM is 92%.

**Q.** And the growth at 0.01 µM (PC-3)?
**A.** Its growth at 0.01 µM is 100%.

**Q.** What about the growth at 0.1 µM (HCT-15) of the same molecule?
**A.** Its growth at 0.1 µM is 92%.

**Q.** And the growth at 0.1 µM (HT-29 [8])?
**A.** Its growth at 0.1 µM is 100%.

**Q.** And the growth at 0.1 µM (SK-MEL-28)?
**A.** The growth at 0.1 µM was 106%.

**Q.** What about the growth at 0.1 µM (MDA-MB-468) of the same molecule?
**A.** Its growth at 0.1 µM is 90%.

**Q.** And the growth at 1 µM (CCRF-CEM [9])?
**A.** The growth at 1 µM was 67%.

**Q.** And the growth at 1 µM (NCI-H460)?
**A.** The growth at 1 µM was 93%.

**Q.** And the growth at 1 µM (SW-620 [10])?
**A.** Its growth at 1 µM is 88%.

**Q.** And the growth at 1 µM (UACC-257)?
**A.** The growth at 1 µM was 81%.

**Q.** What about the growth at 1 µM (OVCAR-8 [11]) of the same molecule?
**A.** The growth at 1 µM was 91%.

**Q.** What about the growth at 10 µM (NCI-H226) of the same molecule?
**A.** The growth at 10 µM was 14%.

**Q.** What about the growth at 10 µM (SW-620 [12]) of the same molecule?
**A.** The growth at 10 µM was -9%.

**Q.** What about the growth at 10 µM (U-251) of the same molecule?
**A.** The growth at 10 µM was -31%.

**Q.** What about the growth at 10 µM (Malme-3M [13]) of the same molecule?
**A.** Its growth at 10 µM is 26%.

**Q.** What about the growth at 10 µM (OVCAR-8 [14]) of the same molecule?
**A.** The growth at 10 µM was 2%.

**Q.** And the growth at 10 µM (DU-145)?
**A.** Its growth at 10 µM is -2%.

**Q.** And the growth at 100 µM (RPMI-8226 [15])?
**A.** Its growth at 100 µM is -37%.

**Q.** What about the growth at 100 µM (COLO 205) of the same molecule?
**A.** Its growth at 100 µM is -100%.

**Q.** And the growth at 100 µM (HCT-116)?
**A.** The growth at 100 µM was 1%.

**Q.** And the growth at 100 µM (SF-539)?
**A.** The growth at 100 µM was -83%.

**Q.** What about the growth at 100 µM (SNB-19) of the same molecule?
**A.** The growth at 100 µM was 6%.

**Q.** And the growth at 100 µM (Malme-3M [16])?
**A.** Its growth at 100 µM is -56%.

**Q.** What about the growth at 100 µM (SN12C) of the same molecule?
**A.** Its growth at 100 µM is 18%.
